According to patent publication US20230048132A1, “CYCLIN-DEPENDENT KINASE INHIBITORS” (SPV THERAPEUTICS INC., priority 2018, published 2023):
Values joined by “and” are separate entries in the source; they are usually repeats but may differ in a detail not shown here. Equal values may be shown once. Read-outs that look alike come from different tables or passages of the source.

Experiments:
all cell lines tested = assay: 2D cell proliferation assay, geometric mean over the cell line panel; type: cell-based; conditions: Table 5 lower part; geometric mean over the 8-line panel; read-out: Geomean abs. IC50 value
Protocol: (§1) Viability of the cells was analyzed by using the CellTiter-Blue® Cell Viability Assay (Promega), and was performed according to manufacturer's instructions. Briefly, cells were harvested from exponential phase cultures (Chapter 6.6), counted and plated in 96-well flat-bottom microtiter plates at a cell density of 4,000-60,000 cells/well in a volume of 140 μl per well. After a 24 hours recovery period, 10 μL cell culture medium (six control wells/plate) or culture medium with test compound were added (Chapter 6.2). The compounds were applied at five concentrations in full-log increments up to 100 μM in duplicate. Cultures were incubated at 37° C. and 5% CO2 in a humidified atmosphere for another three days. After three days of treatment, 20 μl/well CellTiter-Blue® reagent was added. Following incubation with CellTiter-Blue® reagent for up to four hours, fluorescence (FU) was measured by using the Enspire Multimode Plate Reader (excitation λ=570 nm, emission λ=600 nm). For calculations, the mean values of duplicate/sextuplicate (untreated control) data were used.
(§2) IC values are reported as relative IC50 values and absolute IC50 and IC70 values. […] The absolute IC70 value gives the concentration of the test compound that achieves T/C=30%. The relative IC50 value is the concentration of test compound that gives a response halfway between the top and bottom plateau of the sigmoidal concentration-response curve (inflection point of the curve). Calculation was done by 4parameter non-linear curve fit (Oncotest Data Warehouse Software).
(§3) If an IC50 or IC70 value could not be determined within the examined dose range (because a compound was either too active or lacked activity), the lowest or highest concentration studied was used for calculation of the geometric mean value.
The overall potency of a compound was determined by the geometric mean IC50/IC70 values of all individual IC50/IC70 values. In the heatmap representation of IC50 and IC70 values, the distribution of the IC50 or IC70 values obtained for a test compound in the individual cell lines is given in relation to the geometric mean IC50 or IC70 value, obtained over all PDX models tested. The individual IC values range from 1/32-fold geometric mean IC (corresponding to very potent compound activity or high tumor sensitivity) to 32-fold geometric mean IC (corresponding to lack of compound activity or tumor resistance). The heatmap presentation, therefore, represents an antiproliferative “fingerprint” profile of a test compound.

CDK2-CYCLINA = biological target: T1, CDK2-CYCLINA (Homo sapiens, UniProt P24941); assay: CDK inhibition assay (microfluidic LabChip, IC50 format); type: biochemical; conditions: read-out: CDK2 CyclinA IC50
T1 construct: purchased Millipore

CDK7 CyclinH = CDK7 CyclinH (Homo sapiens, UniProt P50613); assay: as above; type: biochemical
Sequence of CDK7 CyclinH (P50613 whole entry): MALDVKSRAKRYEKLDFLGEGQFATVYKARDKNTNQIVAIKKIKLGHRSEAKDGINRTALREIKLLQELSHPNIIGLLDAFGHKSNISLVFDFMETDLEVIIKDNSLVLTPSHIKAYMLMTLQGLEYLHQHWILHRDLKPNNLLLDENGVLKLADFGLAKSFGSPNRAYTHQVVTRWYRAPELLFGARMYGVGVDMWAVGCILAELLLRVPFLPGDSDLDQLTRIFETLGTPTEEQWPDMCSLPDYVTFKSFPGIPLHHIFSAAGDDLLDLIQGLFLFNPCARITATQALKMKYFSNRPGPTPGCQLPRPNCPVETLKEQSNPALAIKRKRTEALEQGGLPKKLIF
Sequence of CDK7 CyclinH (P51946 whole entry partner): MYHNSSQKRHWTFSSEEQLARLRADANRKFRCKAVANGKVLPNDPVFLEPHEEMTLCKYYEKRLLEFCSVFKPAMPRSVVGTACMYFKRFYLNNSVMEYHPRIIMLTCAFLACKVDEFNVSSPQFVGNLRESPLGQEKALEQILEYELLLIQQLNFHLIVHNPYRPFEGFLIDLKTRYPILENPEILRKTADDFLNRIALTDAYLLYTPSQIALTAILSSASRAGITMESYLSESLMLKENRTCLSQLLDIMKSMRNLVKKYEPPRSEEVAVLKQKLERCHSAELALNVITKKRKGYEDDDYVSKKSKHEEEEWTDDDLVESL
Sequence of CDK7 CyclinH (P51948 whole entry partner): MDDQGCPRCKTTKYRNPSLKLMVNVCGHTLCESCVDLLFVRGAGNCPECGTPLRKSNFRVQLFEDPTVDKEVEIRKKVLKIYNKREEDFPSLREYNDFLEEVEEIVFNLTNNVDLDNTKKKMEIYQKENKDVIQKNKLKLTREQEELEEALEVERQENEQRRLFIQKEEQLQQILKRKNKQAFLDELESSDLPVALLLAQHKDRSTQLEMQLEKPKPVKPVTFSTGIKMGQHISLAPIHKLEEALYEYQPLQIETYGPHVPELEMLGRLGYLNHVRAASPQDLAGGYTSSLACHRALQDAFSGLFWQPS

CDK9-CYCLINT1 = biological target: T2, CDK9-CYCLINT1 (Homo sapiens, UniProt P50750); assay: as above; type: biochemical; conditions: read-out: CDK9 CyclinT1 IC50
T2 construct: purchased Carna
T2 sequence (P50750 whole entry): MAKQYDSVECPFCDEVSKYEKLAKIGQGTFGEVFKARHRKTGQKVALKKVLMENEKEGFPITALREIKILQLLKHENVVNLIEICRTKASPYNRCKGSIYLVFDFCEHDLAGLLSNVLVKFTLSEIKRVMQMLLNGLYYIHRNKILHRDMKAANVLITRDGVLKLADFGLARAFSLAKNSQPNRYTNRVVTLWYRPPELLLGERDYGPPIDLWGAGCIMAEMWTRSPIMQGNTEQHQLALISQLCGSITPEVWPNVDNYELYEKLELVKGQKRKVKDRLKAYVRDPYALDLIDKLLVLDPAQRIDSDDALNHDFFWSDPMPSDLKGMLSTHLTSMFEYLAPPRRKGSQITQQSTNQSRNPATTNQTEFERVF
T2 sequence (O60563 whole entry partner): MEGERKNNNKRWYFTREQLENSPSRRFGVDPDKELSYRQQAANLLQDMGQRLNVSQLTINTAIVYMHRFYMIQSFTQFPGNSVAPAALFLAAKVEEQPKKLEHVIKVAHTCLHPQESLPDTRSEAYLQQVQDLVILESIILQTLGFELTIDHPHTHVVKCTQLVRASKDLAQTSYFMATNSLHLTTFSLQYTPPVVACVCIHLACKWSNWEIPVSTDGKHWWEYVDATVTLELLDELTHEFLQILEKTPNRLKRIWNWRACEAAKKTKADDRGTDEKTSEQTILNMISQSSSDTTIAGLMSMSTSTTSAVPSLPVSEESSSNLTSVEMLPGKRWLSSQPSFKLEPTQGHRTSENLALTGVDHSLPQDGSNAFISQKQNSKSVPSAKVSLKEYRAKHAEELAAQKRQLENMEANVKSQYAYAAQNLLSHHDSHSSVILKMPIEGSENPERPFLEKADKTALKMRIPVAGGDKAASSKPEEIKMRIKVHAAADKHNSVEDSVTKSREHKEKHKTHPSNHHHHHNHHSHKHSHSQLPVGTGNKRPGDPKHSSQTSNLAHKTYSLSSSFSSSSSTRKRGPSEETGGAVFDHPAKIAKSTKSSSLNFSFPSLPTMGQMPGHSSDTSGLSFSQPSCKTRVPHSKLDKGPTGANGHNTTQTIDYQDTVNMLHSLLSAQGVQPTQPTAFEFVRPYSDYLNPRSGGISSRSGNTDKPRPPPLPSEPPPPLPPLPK

CDK6-CYCLIND3 = biological target: T3, CDK6-CYCLIND3 (Homo sapiens, UniProt Q00534); assay: as above; type: biochemical; conditions: Table 4a; read-out: CDK6 CyclinD3 IC50
T3 construct: purchased Carna
T3 sequence (Q00534 whole entry): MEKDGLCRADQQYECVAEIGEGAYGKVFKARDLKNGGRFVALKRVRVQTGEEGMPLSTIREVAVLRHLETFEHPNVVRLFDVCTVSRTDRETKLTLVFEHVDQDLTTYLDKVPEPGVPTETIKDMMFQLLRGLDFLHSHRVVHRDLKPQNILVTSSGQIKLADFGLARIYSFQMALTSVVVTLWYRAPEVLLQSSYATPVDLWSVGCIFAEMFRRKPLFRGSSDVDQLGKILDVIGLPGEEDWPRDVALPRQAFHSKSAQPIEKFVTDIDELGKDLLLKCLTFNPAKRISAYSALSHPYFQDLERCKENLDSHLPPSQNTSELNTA
T3 sequence (P30281 whole entry partner): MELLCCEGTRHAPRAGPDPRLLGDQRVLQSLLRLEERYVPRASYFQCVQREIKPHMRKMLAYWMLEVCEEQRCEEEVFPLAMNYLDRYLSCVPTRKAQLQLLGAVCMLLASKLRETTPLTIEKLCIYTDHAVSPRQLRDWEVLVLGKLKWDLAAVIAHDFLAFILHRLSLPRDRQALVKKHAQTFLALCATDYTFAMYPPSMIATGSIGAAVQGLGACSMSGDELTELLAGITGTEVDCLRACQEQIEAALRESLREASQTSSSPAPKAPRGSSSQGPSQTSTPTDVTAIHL

MAXFTN ZR-75-1 (ER+) = assay: 2D cell proliferation assay (CellTiter-Blue); type: cell-based; conditions: Homo sapiens, 72 h, three days of treatment, read-out: abs. IC50
Protocol: as §1
(§4) An assay was considered fully evaluable if the following quality control criteria were fulfilled: • control/background ratio>3.0-Z′-factor calculated within the assay plate>0.5 [7]—coefficient of variation in the growth control wells <30%
(§5) Drug effects were expressed in terms of the percentage of the fluorescence signal, obtained by comparison of the mean signal in the treated wells with the mean signal of the untreated controls (expressed by the test-versus-control value, T/C-value [%]):
as §2, §3

LXFL NCl-H1299 = assay: 2D cell proliferation assay (CellTiter-Blue); type: cell-based; conditions: 72 h, three days of treatment, read-out: abs. IC50
Protocol: as §1, §4, §5, §2, §3

LXFA A549 = assay: 2D cell proliferation assay (CellTiter-Blue); type: cell-based; conditions: Homo sapiens, 72 h, three days of treatment, read-out: abs. IC50
Protocol: as §1, §4, §5, §2, §3

MEXF WM-266-4 = assay: 2D cell proliferation assay (CellTiter-Blue); type: cell-based; conditions: Homo sapiens, 72 h, three days of treatment, read-out: abs. IC50
Protocol: as §1, §4, §5, §2, §3

LEXFAM MV4-11 = assay: 2D cell proliferation assay (CellTiter-Blue); type: cell-based; conditions: Homo sapiens, 72 h, three days of treatment, read-out: abs. IC50
Protocol: as §1, §4, §5, §2, §3

MAXFLB MCF7 (ER+) = assay: 2D cell proliferation assay (CellTiter-Blue); type: cell-based; conditions: Homo sapiens, 72 h, three days of treatment, read-out: abs. IC50
Protocol: as §1, §4, §5, §2, §3

CDK1/B = CDK1/B (Homo sapiens, UniProt P06493); assay: CDK inhibition assay (microfluidic LabChip, IC50 format); type: biochemical
Sequence of CDK1/B (P06493 whole entry, species assumed): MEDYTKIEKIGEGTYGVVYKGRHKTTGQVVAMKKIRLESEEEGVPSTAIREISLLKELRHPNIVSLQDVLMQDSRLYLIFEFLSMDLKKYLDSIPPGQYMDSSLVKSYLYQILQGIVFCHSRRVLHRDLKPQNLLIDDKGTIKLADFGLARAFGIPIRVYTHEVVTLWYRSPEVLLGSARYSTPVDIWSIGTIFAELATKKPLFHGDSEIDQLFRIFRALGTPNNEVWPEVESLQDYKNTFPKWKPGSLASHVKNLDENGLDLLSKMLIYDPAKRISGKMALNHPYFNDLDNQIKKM
Sequence of CDK1/B (P14635 whole entry partner, species assumed): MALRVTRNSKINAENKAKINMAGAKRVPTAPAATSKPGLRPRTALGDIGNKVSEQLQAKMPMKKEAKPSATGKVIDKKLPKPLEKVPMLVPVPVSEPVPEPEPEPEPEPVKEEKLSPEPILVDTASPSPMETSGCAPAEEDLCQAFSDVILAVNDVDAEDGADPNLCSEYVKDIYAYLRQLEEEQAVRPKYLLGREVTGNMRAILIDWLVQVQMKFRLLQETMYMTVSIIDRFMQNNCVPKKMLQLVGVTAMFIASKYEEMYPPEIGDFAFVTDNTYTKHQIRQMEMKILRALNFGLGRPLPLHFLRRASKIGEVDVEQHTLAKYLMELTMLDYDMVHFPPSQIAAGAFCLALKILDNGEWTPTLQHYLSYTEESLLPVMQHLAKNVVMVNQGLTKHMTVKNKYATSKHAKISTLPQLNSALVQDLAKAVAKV

CDK4-CYCLIND1 = CDK4-CYCLIND1 (Homo sapiens, UniProt P11802); assay: as above; conditions: a second value in parentheses for some compounds
Sequence of CDK4-CYCLIND1 (P11802 whole entry): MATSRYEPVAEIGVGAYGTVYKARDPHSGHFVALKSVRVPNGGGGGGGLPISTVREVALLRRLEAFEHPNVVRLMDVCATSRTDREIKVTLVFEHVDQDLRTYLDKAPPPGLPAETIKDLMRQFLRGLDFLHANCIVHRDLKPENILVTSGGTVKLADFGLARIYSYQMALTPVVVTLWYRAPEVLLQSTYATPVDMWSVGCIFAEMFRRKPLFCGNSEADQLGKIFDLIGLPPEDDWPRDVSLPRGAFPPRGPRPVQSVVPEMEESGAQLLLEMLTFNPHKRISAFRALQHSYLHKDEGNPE
Sequence of CDK4-CYCLIND1 (P24385 whole entry partner): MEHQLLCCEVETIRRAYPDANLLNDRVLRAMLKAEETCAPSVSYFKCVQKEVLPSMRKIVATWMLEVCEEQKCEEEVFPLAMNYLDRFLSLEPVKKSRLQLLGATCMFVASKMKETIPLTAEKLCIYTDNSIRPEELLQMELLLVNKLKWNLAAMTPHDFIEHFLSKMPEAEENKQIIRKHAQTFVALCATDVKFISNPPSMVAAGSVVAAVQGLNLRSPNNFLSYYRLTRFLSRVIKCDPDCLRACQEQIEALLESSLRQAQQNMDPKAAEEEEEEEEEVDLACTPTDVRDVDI
Protocol: Inhibition assays were performed using microfluidic LabChip 300 Drug Discovery System from Caliper Life Sciences. […] The assay has a total volume of 10 μL consisting of 5 μL of enzyme and buffer and 5 μL of substrate and buffer. The test compounds were diluted in 100% dimethylsulfoxide (DMSO) using 3-fold dilution steps. […] Compounds were tested in a single well for each dilution and the final concentration of DMSO was maintained at 1%.
The assay buffer contained 100 mM HEPES, pH 7.5, 0.01% Triton X-100, 0.1% bovine serum albumin (BSA), 5 mM MgCl2; 1 mM dithiothreitol (DTT), 10 μM sodium orthovanadate, and 10 μM β-glycerophosphate.
The assay was conducted by adding 5 μL of enzyme, adenosine triphosphate (ATP) and buffer to an assay plate. A 100 nL aliquot of the diluted compounds were added to the plate. The assay was initiated by the addition of 5 μL of phosphoenolpyruvate substrate (PEP) in buffer. […] The reaction was terminated by the addition of EDTA. The plates were analyzed using a Caliper LabChip 3000.
Additional inhibition assays were performed as described above.
The assays were conducted as described above for the racemates.

[1] = CDK4 CyclinD1 IC50, Table 4b, lower part

| IC50 (CDK2-CYCLINA; Table 4a) | IC50 (CDK7 CyclinH; Table 4a) | IC50 (CDK9-CYCLINT1; Table 4a) | IC50 (CDK1/B; Table 4b, lower part) | IC50 (CDK4-CYCLIND1; [1]) | IC50 (CDK2-CYCLINA; Table 4b, lower part) | IC50 (CDK7 CyclinH; Table 4b, lower part) | IC50 (CDK9-CYCLINT1; Table 4b, lower part) | Structure (SMILES) | also measured |
| --- | --- | --- | --- | --- | --- | --- | --- | --- | --- |
| 29.2 nM | 229 nM | 4.84 nM |  |  |  |  |  | CN1CCN(c2ccc(Nc3ncc4c(n3)N(C3CCCC3)C(=O)[C@]3(CCNC3=O)C4)cc2)CC1 [Example D144, (S)-8-cyclopentyl-2-((4-(4-methylpiperazin-1-yl)phenyl)amino)-5,8-dihydro-7H-spiro[pyrido[2,3-d]pyrimidine-6,3′-pyrrolidine]-2′,7-dione] | IC50 (all cell lines tested): 475 nM; IC50 (CDK6-CYCLIND3): 1.54 nM; IC50 (MAXFTN ZR-75-1 (ER+)): 100 µM; IC50 (LXFL NCl-H1299): 219 nM; IC50 (LXFA A549): 1290 nM; IC50 (MEXF WM-266-4): 358 nM; IC50 (LEXFAM MV4-11): 10 nM; IC50 (MAXFLB MCF7 (ER+)): 114 nM |
| 83200 nM and > 10000 nM | > 100000 nM | 6250 nM and 987 nM |  |  |  |  |  | CC(C)N1CCN(c2ccc(Nc3ncc4c(n3)N(C3CCCC3)C(=O)[C@]3(CCNC3=O)C4)c(F)c2)CC1 [Example D148, (S)-8-cyclopentyl-2-((2-fluoro-4-(4-isopropylpiperazin-1-yl)phenyl)amino)-5,8-dihydro-7H-spiro[pyrido[2,3-d]pyrimidine-6,3′-pyrrolidine]-2′,7-dione] | IC50 (CDK1/B; Table 4a): > 10000 nM; IC50 (CDK4-CYCLIND1; CDK4 CyclinD1 IC50, Table 4a): 1270 nM and 188 nM; IC50 (CDK6-CYCLIND3): 4670 nM |
| 22.2 nM | 120 nM | 5.25 nM |  |  |  |  |  | Cc1cc(Nc2ncc3c(n2)N(C2CCCC2)C(=O)[C@]2(CCNC2=O)C3)ccc1N1CCN(C(C)C)CC1 [Example D158, (S)-8-cyclopentyl-2-((4-(4-isopropylpiperazin-1-yl)-3-methylphenyl)amino)-5,8-dihydro-7H-spiro[pyrido[2,3-d]pyrimidine-6,3′-pyrrolidine]-2′,7-dione] | IC50 (all cell lines tested): 301 nM; IC50 (CDK4-CYCLIND1; CDK4 CyclinD1 IC50, Table 4a): 1.04 nM; IC50 (CDK6-CYCLIND3): 2.17 nM; IC50 (MAXFTN ZR-75-1 (ER+)): 5.52 µM; IC50 (LXFL NCl-H1299): 257 nM; IC50 (LXFA A549): 554 nM; IC50 (MEXF WM-266-4): 451 nM; IC50 (LEXFAM MV4-11): 38 nM; IC50 (MAXFLB MCF7 (ER+)): 55 nM |
|  |  |  | 167 nM | < 3.2 nM | 36.8 nM | 162 nM | < 3.2 nM | CN1CC2(C1)CN(c1ccc(Nc3ncc4c(n3)N(C3CCCC3)C(=O)[C@]3(CCNC3=O)C4)cc1F)C2 [Example D101, (S)-8-cyclopentyl-2-((3-fluoro-4-(6-methyl-2,6-diazaspiro[3.3]heptan-2-yl)phenyl)amino)-5,8-dihydro-7H-spiro[pyrido[2,3-d]pyrimidine-6,3′-pyrrolidine]-2′,7-dione] |  |
|  |  |  | 2850 nM | 5.04 nM | 424 nM | 2970 nM | 7.85 nM | CC(C)C1CCN(c2ccc(Nc3ncc4c(n3)N(C3CCCC3)C(=O)[C@]3(CCNC3=O)C4)cc2)CC1 [Example D201, (S)-8-cyclopentyl-2-((4-(4-isopropylpiperidin-1-yl)phenyl)amino)-5,8-dihydro-7H-spiro[pyrido[2,3-d]pyrimidine-6,3′-pyrrolidine]-2′,7-dione] |  |
|  |  |  | 4.46 nM | < 3.2 nM | < 3.2 nM | 215 nM | 3.51 nM | CS(=O)(=O)N1CCC(Nc2ncc3c(n2)N(C2CCCC2)C(=O)[C@]2(CCNC2=O)C3)CC1 [Example D117, (S)-8-cyclopentyl-2-((1-(methylsulfonyl)piperidin-4-yl)amino)-5,8-dihydro-7H-spiro[pyrido[2,3-d]pyrimidine-6,3′-pyrrolidine]-2′,7-dione] |  |
| > 10000 nM | > 10000 nM | 204 nM |  |  |  |  |  | CN(C)CCOc1ccc(Nc2ncc3c(n2)N(C2CCCC2)C(=O)[C@]2(CCNC2=O)C3)nc1 [Example D138, (S)-8-cyclopentyl-2-((5-(2-(dimethylamino)ethoxy)pyridin-2-yl)amino)-5,8-dihydro-7H-spiro[pyrido[2,3-d]pyrimidine-6,3′-pyrrolidine]-2′,7-dione] | IC50 (CDK1/B; Table 4a): > 10000 nM; IC50 (CDK4-CYCLIND1; CDK4 CyclinD1 IC50, Table 4a): 4.58 nM |
|  |  |  | 2910 nM | 13.3 nM | 1090 nM | 1240 nM | 28.1 nM | O=C1NCC[C@@]12Cc1cnc(Nc3ccc(N4CCN(CCO)CC4)c(F)c3)nc1N(C13CC(C1)C3)C2=O [Example D99, (S)-8-(bicyclo[1.1.1]pentan-1-yl)-2-((3-fluoro-4-(4-(2-hydroxyethyl)piperazin-1-yl)phenyl)amino)-5,8-dihydro-7H-spiro[pyrido[2,3-d]pyrimidine-6,3′-pyrrolidine]-2′,7-dione] |  |
|  |  |  | 8670 nM | 39.7 nM | 3420 nM | 3770 nM | 72.6 nM | CC1CN(c2ccc(Nc3ncc4c(n3)N(C35CC(C3)C5)C(=O)[C@]3(CCNC3=O)C4)cc2)CC(C)N1 (stereo partly drawn) [Example D200, (6S)-8-(bicyclo[1.1.1]pentan-1-yl)-2-((4-(3,5-dimethylpiperazin-1-yl)phenyl)amino)-5,8-dihydro-7H-spiro[pyrido[2,3-d]pyrimidine-6,3′-pyrrolidine]-2′,7-dione] |  |
|  |  |  | 222 nM | < 3.2 nM | 56.6 nM | 111 nM | < 3.2 nM | O=C1NCC[C@@]12Cc1cnc(Nc3ccc(N4CCN(CCO)CC4)c(F)c3)nc1N(C1CCCC1)C2=O [Example D97, (S)-8-cyclopentyl-2-((3-fluoro-4-(4-(2-hydroxyethyl)piperazin-1-yl)phenyl)amino)-5,8-dihydro-7H-spiro[pyrido[2,3-d]pyrimidine-6,3′-pyrrolidine]-2′,7-dione] |  |
|  |  |  | 37.9 nM | < 3.2 nM | < 3.2 nM | 1670 nM | < 3.2 nM | CS(=O)(=O)c1ccc(Nc2ncc3c(n2)N(C2CCCC2)C(=O)[C@]2(CCNC2=O)C3)cc1 [Example D114, (S)-8-cyclopentyl-2-((4-(methylsulfonyl)phenyl)amino)-5,8-dihydro-7H-spiro[pyrido[2,3-d]pyrimidine-6,3′-pyrrolidine]-2′,7-dione] |  |
|  |  |  | 353 nM | < 3.2 nM | 74.6 nM | 406 nM | 3.74 nM | CC1CN(c2ccc(Nc3ncc4c(n3)N(C3CCCC3)C(=O)[C@]3(CCNC3=O)C4)cc2)CC(C)N1 (stereo partly drawn) [Example D199, (6S)-8-cyclopentyl-2-((4-(3,5-dimethylpiperazin-1-yl)phenyl)amino)-5,8-dihydro-7H-spiro[pyrido[2,3-d]pyrimidine-6,3′-pyrrolidine]-2′,7-dione] |  |
|  |  |  | 2200 nM | 22.7 nM | 803 nM | > 10000 nM | 25.4 nM | C[C@]1(O)CC[C@@H](Nc2ncc3c(n2)N(C2CCCC2)C(=O)[C@]2(CCNC2=O)C3)CC1 [Example D126, (S)-8-cyclopentyl-2-(((1s,4R)-4-hydroxy-4-methylcyclohexyl)amino)-5,8-dihydro-7H-spiro[pyrido[2,3-d]pyrimidine-6,3′-pyrrolidine]-2′,7-dione] |  |
